Results from PubChem BioAssay AID248 (DTP/NCI, 2004).
Inconclusive results and toxic doses are left out.

Tested on: L1210 leukemia ip in BDF1 mice, survival T/C
Assay: NCI In Vivo Anticancer Drug Screen. Data for tumor model L1210 Leukemia (intraperitoneal) in B6D2F1 (BDF1) mice
Conditions: endpoint: mean survival time, higher = longer survival
Procedure, shortened: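 Tumor cells were implanted, animals were treated, and survival was followed. The result divides the treated measurement by the vehicle-control measurement.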

[1] = dose: 100.0 mg/kg/injection, schedule: Q04DX002 (ip), vehicle: Klucel (hydroxypropylcellulose) (HPC)
[2] = dose: 200.0 mg/kg/injection, schedule: Q04DX002 (ip), vehicle: Klucel (hydroxypropylcellulose) (HPC)
[3] = dose: 400.0 mg/kg/injection, schedule: Q04DX002 (ip), vehicle: Klucel (hydroxypropylcellulose) (HPC)
[4] = dose: 100.0 mg/kg/injection, schedule: Q01DX001 (ip), vehicle: carboxymethylcellulose (CMC)
[5] = dose: 200.0 mg/kg/injection, schedule: Q01DX001 (ip), vehicle: carboxymethylcellulose (CMC)
[6] = dose: 400.0 mg/kg/injection, schedule: Q01DX001 (ip), vehicle: carboxymethylcellulose (CMC)

CCN=C(c1ccc(NC(=O)c2ccc(C(=O)Nc3ccc(C(=NCC)N(CC)C(=O)Nc4ccc(OC)cc4)cc3)cc2)cc1)N(CC)C(=O)Nc1ccc(OC)cc1
T/C (dose: 2.25 mg/kg/injection, schedule: Q01DX015 (ip), vehicle: methylcellulose (MC)): 108 % of control
T/C (dose: 3.12 mg/kg/injection, schedule: Q01DX015 (ip), vehicle: methylcellulose (MC)): 101 % of control
T/C (dose: 4.5 mg/kg/injection, schedule: Q01DX015 (ip), vehicle: methylcellulose (MC)): 110 % of control
T/C (dose: 6.25 mg/kg/injection, schedule: Q01DX015 (ip), vehicle: methylcellulose (MC)): 124 % of control
T/C (dose: 12.5 mg/kg/injection, schedule: Q01DX015 (ip), vehicle: methylcellulose (MC)): 170 % of control

COc1ccc(NC(=O)c2ccc(Cl)cc2Cl)cc1
T/C [1]: 111 % of control
T/C [2]: 104 % of control
T/C [3]: 101 % of control

COc1ccc(C(=O)N/N=C/C(CC(O)CO)=N/NC(=O)c2ccc(OC)cc2)cc1 (stereo unspecified)
T/C (dose: 100.0 mg/kg/injection, schedule: Q04DX003 (ip), vehicle: Klucel (hydroxypropylcellulose) (HPC)): 95 % of control
T/C (dose: 200.0 mg/kg/injection, schedule: Q04DX003 (ip), vehicle: Klucel (hydroxypropylcellulose) (HPC)): 92 % of control
T/C (dose: 400.0 mg/kg/injection, schedule: Q04DX003 (ip), vehicle: Klucel (hydroxypropylcellulose) (HPC)): 96 % of control

CC(=O)OCc1ccc(O)c2ncccc12
T/C (dose: 75.0 mg/kg/injection, schedule: Q01DX001 (ip), vehicle: carboxymethylcellulose (CMC)): 96 % of control
T/C (dose: 150.0 mg/kg/injection, schedule: Q01DX001 (ip), vehicle: carboxymethylcellulose (CMC)): 100 % of control

OCc1cc(Cl)ccc1O
T/C (dose: 100.0 mg/kg/injection, schedule: Q01DX009 (ip), vehicle: other): 91 % of control
T/C (dose: 100.0 mg/kg/injection, schedule: Q04DX003 (ip), vehicle: other): 103 % of control
T/C (dose: 200.0 mg/kg/injection, schedule: Q01DX009 (ip), vehicle: other): 120 % of control
T/C (dose: 200.0 mg/kg/injection, schedule: Q04DX003 (ip), vehicle: other): 95 % of control
T/C (dose: 400.0 mg/kg/injection, schedule: Q04DX003 (ip), vehicle: other): 93 % of control

CC(=O)C(C)C(=O)c1cc(C)c(Br)s1 (stereo unspecified)
T/C [4]: 94 % of control
T/C [5]: 97 % of control
T/C [6]: 94 % of control

CC1(C)C[n+]2noc([O-])c2C(C)(C)C1
T/C (dose: 0.19 mg/kg/injection, schedule: Q04DX003 (ip), vehicle: alcohol): 104 % of control
T/C (dose: 0.39 mg/kg/injection, schedule: Q01DX009 (ip), vehicle: alcohol): 100 % of control
T/C (dose: 0.39 mg/kg/injection, schedule: Q04DX003 (ip), vehicle: alcohol): 96 % of control
T/C (dose: 0.78 mg/kg/injection, schedule: Q01DX009 (ip), vehicle: alcohol): 105 % of control
T/C (dose: 0.78 mg/kg/injection, schedule: Q04DX003 (ip), vehicle: alcohol): 113 % of control
T/C (dose: 1.56 mg/kg/injection, schedule: Q01DX009 (ip), vehicle: alcohol): 105 % of control
T/C (dose: 1.56 mg/kg/injection, schedule: Q04DX003 (ip), vehicle: alcohol): 96 % of control

Cc1ccc(-n2ccnc2)c(N=Cc2ccc(N(CCCl)CCCl)cc2Cl)c1
T/C [1]: 102 % of control
T/C [2]: 102 % of control
T/C [3]: 102 % of control

CN(C)C1CCC2C3CC=C4CC(OC=O)CCC4(C)C3CCC21C (stereo unspecified)
T/C (dose: 9.38 mg/kg/injection, schedule: Q01DX001 (ip), vehicle: other): 101 % of control
T/C (dose: 18.75 mg/kg/injection, schedule: Q01DX001 (ip), vehicle: other): 101 % of control
T/C (dose: 37.5 mg/kg/injection, schedule: Q01DX001 (ip), vehicle: other): 100 % of control

Oc1ccccc1C(=NNc1ccccc1)c1ccccc1O
T/C [4]: 115 % of control
T/C [5]: 105 % of control
T/C [6]: 103 % of control

COc1ccc(C2OC23CC(C)(C)c2ccccc2C3=O)cc1 (stereo unspecified)
T/C (dose: 100.0 mg/kg/injection, schedule: Q04DX003 (ip), vehicle: saline with Tween-80): 93 % of control
T/C (dose: 200.0 mg/kg/injection, schedule: Q04DX003 (ip), vehicle: saline with Tween-80): 89 % of control
T/C (dose: 400.0 mg/kg/injection, schedule: Q04DX003 (ip), vehicle: saline with Tween-80): 94 % of control

CCCCCCCCCCCCC(=O)N(CCC)CCC
T/C [1]: 98 % of control
T/C [2]: 98 % of control
T/C [3]: 102 % of control

CC(=O)OCC(C)CC/C(=N\O)C(C)C1/C(=N/O)CC2C=C3CC(OC(C)=O)CCC3(C)CC21C (stereo unspecified)
T/C (dose: 50.0 mg/kg/injection, schedule: Q01DX009 (ip), vehicle: Klucel (hydroxypropylcellulose) (HPC)): 97 % of control
T/C (dose: 100.0 mg/kg/injection, schedule: Q01DX009 (ip), vehicle: Klucel (hydroxypropylcellulose) (HPC)): 91 % of control
T/C (dose: 200.0 mg/kg/injection, schedule: Q01DX009 (ip), vehicle: Klucel (hydroxypropylcellulose) (HPC)): 91 % of control
